Results from US4048299A, “Anticaries confectionaries and oral health products” (William Wrigley, Jr. Co., priority 1970, dated 1977).

Columns and labels:
[1] = test system: Mixed human oral microorganisms; assay: Growth inhibition by aldehydes in product vehicles, pour-plate technique; format: cell-based; conditions: 1 to 5 percent aldehyde
Protocol: (§1) Other in vitro evaluations utilized a broth tube analysis of representative anticaries aldehydes incorporated in the vehicles of this invention against cultures of acid producing microorganisms normally present in the mouth. Standard laboratory procedures were utilized throughout to evaluate the acid production inhibition and growth inhibition over the incubation time of up to 24 hours.
(b)Measured by pour-plate technique.
(§2) In formulating Tables XIII - XIX representative aldehydes having anticaries activity were selected from those tested as summarized in Tables I - XII and incorporated in seven representative types of products. The products included dextrose and sucrose syrups, obtained commercially in food grades, and compressed candy, hard candy, mouthwash, toothpaste and toothpowder. The five latter products also employed food grade and reagent grade ingredients. These products were formulated by well-known and representative recipes for each type of product. The products were formed in batches of approximately 1 pound or 1 liter and contained all their normal constitutents. Aliquots of each products were blended with one of each of the representative aldehydes selected except in the case of hard candy.
(§3) Aliquots of the aldehyde incorporating sugar syrups, confectioneries, and mouthwash formulations were added directly to assay flasks and mixed or dissolved as required. Aqueous extracts of the aldehyde incorporated in toothpaste and toothpowder were prepared and aliquots of the filtrate were added to the assay flasks.
(§4) The assay flasks contained the necessary components for a normal growth response from the organisms employed, Lactobacillus casei ATCC 4646, originally a human oral isolate, Streptococcus spp. K1-R, human caries isolate, and a mixed oral microbial population obtained fresh from saliva on the morning prior to the initiation of each assay incubation period. The assay flask medium was dissolved in distilled water in which was added an equal volume of filter sterilized human saliva to yield a 50 percent saliva-medium combination. The medium contained all normal ingredients such as yeast extract, proteose peptone number 3 (a proprietary formula of Difco Laboratories, Detroit, Michigan) monopotassium phosphate, Tween 80 (polyoxethylene sorbitan monoleate) and water, except a carbon source. This was supplied by the aliquot of the sucrose syrup, dextrose syrup, sucrose in the compressed candy tablet and sucrose in the hard candy product. In addition, an aliquot of sucrose solution concentrate was added to the assay flask as a carbon source for evaluation of mouthwash, toothpaste, and toothpowder vehicles.
(§5) The lower aldehydes such as glycolaldehyde, crystalline dimer; pyruvaldehyde, aqueous syrup; d,1-glyceraldehyde solution and crystalline dimer; and glutaraldehyde, employed as a 50 percent aqueous solution, are water soluble and were employed directly either as powders or aqueous solutions. The C8 to C12, longer chain aliphatic aldehydes, of which decyl and dodecyl (lauric) were selected as representative, are oil soluble and are prepared and added to the products as emulsions with four parts of Tween 20, polyoxethylene sorbitan monolaurate. The aldehyde concentrations in the products were randomly chosen between 1 to 5 percent by weight. Limits for the concentrations were selected to coincide with the data presented in Tables I - XII in order to verify that the anticaries activity of the aldehydes in the product vehicles tested was equivalent to the activity previously established for the aldehydes alone.

Streptococcus spp. KI-R = assay: Acid production inhibition by aldehydes in product vehicles, broth-tube technique; format: cell-based; conditions: 1 to 5 percent aldehyde
Protocol: as §1
(§6) (a)Measured by broth-tube technique.
as §2, §3, §4, §5

[2] = test system: Lactobacillus casei ATCC 4646; assay: as above; format: cell-based; conditions: 1 to 5 percent aldehyde
Protocol: as §1, §6, §2, §3, §4, §5

[3] = test system: Mixed human oral microorganisms; assay: as above; format: cell-based; conditions: 1 to 5 percent aldehyde
Protocol: as §1, §6, §2, §3, §4, §5

[4] = In vivo caries evaluation, laboratory animals (summary); conditions: one percent level in diet
Source text: Standard laboratory techniques were used to complie the data presented. In each case the aldehyde was incorporated into each specimen's food in a one percent, by weight, quantity, over a period of several weeks. In all cases, caries reduction was noted.
The aldehydes tested in vivo were pyruvaldehyde, d,1-glyceraldehyde, crystalline dimer, glycolaldehyde, octanaldehyde, nonanaldehyde, decanaldehyde, undecylenic aldehyde, and lauric aldehyde. The polyaldehydes tested were dialdehyde starch, dialdehyde starch 50 percent oxidized, dialdehyde starch 90 percent oxidized, and dialdehyde galactomannan gum.

[5] = in compressed candy tablet, 2 h incubation
[6] = in compressed candy tablet, 5 h incubation
[7] = in compressed candy tablet, 24 h incubation
[8] = in dextrose syrup, 2 h incubation
[9] = in dextrose syrup, 5 h incubation
[10] = in dextrose syrup, 24 h incubation
[11] = in sucrose syrup, 2 h incubation
[12] = in sucrose syrup, 5 h incubation
[13] = in sucrose syrup, 24 h incubation
[14] = in tooth powder (aqueous extract), 2 h incubation
[15] = in tooth powder (aqueous extract), 5 h incubation
[16] = in tooth powder (aqueous extract), 24 h incubation
[17] = in toothpaste (aqueous extract), 2 h incubation
[18] = in toothpaste (aqueous extract), 5 h incubation
[19] = in toothpaste (aqueous extract), 24 h incubation

O=C[C@H](O)CO (racemic) [d,1-Glyceraldehyde]
Growth Inhibition [1, 5]: 99.7 Per Cent
Growth Inhibition [1, 6]: 99.99 Per Cent
Growth Inhibition [1, 7]: N.S.
Growth Inhibition [1, 8]: 97.5 Per Cent
Growth Inhibition [1, 9]: > 99.99 Per Cent
Growth Inhibition [1, 10]: 0 Per Cent
Growth Inhibition ([1]; in mouthwash, 2 h incubation): 95.0 Per cent
Growth Inhibition ([1]; in mouthwash, 5 h incubation): 99.98 Per cent
Growth Inhibition ([1]; in mouthwash, 24 h incubation): N.S.
Growth Inhibition [1, 11]: 96 Per cent
Growth Inhibition [1, 12]: 99.6 Per cent
Growth Inhibition [1, 13]: 0 Per cent
Growth Inhibition [1, 14]: N.S.
Growth Inhibition [1, 15]: 99.3 Per cent
Growth Inhibition [1, 16]: N.S.
Growth Inhibition [1, 17]: 97 Per cent
Growth Inhibition [1, 18]: N.S.
Growth Inhibition [1, 19]: 100 Per cent
Acid Production Inhibition (Streptococcus spp. KI-R; [5]): 0 Per Cent
Acid Production Inhibition (Streptococcus spp. KI-R; [6]): 25 Per Cent
Acid Production Inhibition (Streptococcus spp. KI-R; [7]): 84 Per Cent
Acid Production Inhibition (Streptococcus spp. KI-R; [8]): 48 Per Cent
Acid Production Inhibition (Streptococcus spp. KI-R; [9]): 86 Per Cent
Acid Production Inhibition (Streptococcus spp. KI-R; [10]): 82 Per Cent
Acid Production Inhibition (Streptococcus spp. KI-R; in mouthwash, 2 h incubation): 0 Per cent
Acid Production Inhibition (Streptococcus spp. KI-R; in mouthwash, 5 h incubation): 0 Per cent
Acid Production Inhibition (Streptococcus spp. KI-R; in mouthwash, 24 h incubation): 86 Per cent
Acid Production Inhibition (Streptococcus spp. KI-R; [11]): 69 Per cent
Acid Production Inhibition (Streptococcus spp. KI-R; [12]): 88 Per cent
Acid Production Inhibition (Streptococcus spp. KI-R; [13]): 86 Per cent
Acid Production Inhibition (Streptococcus spp. KI-R; [14]): 0 Per cent
Acid Production Inhibition (Streptococcus spp. KI-R; [15]): 0 Per cent
Acid Production Inhibition (Streptococcus spp. KI-R; [16]): 0 Per cent
Acid Production Inhibition (Streptococcus spp. KI-R; [17]): 0 Per cent
Acid Production Inhibition (Streptococcus spp. KI-R; [18]): 0 Per cent
Acid Production Inhibition (Streptococcus spp. KI-R; [19]): 0 Per cent
Acid Production Inhibition [2, 5]: 0 Per Cent
Acid Production Inhibition [2, 6]: 0 Per Cent
Acid Production Inhibition [2, 7]: 73 Per Cent
Acid Production Inhibition [2, 8]: 57 Per Cent
Acid Production Inhibition [2, 9]: 33 Per Cent
Acid Production Inhibition [2, 10]: 89 Per Cent
Acid Production Inhibition [2, 11]: 0 Per cent
Acid Production Inhibition [2, 12]: 30 Per cent
Acid Production Inhibition [2, 13]: 79 Per cent
Acid Production Inhibition [2, 14]: 0 Per cent
Acid Production Inhibition [2, 15]: 0 Per cent
Acid Production Inhibition [2, 16]: 84 Per cent
Acid Production Inhibition [2, 17]: 0 Per cent
Acid Production Inhibition [2, 18]: 0 Per cent
Acid Production Inhibition [2, 19]: 0 Per cent
Acid Production Inhibition [3, 5]: 0 Per Cent
Acid Production Inhibition [3, 6]: 91 Per Cent
Acid Production Inhibition [3, 7]: 87 Per Cent
Acid Production Inhibition [3, 8]: 8 Per Cent
Acid Production Inhibition [3, 9]: 90 Per Cent
Acid Production Inhibition [3, 10]: 77 Per Cent
Acid Production Inhibition ([3]; in mouthwash, 2 h incubation): 0 Per cent
Acid Production Inhibition ([3]; in mouthwash, 5 h incubation): 91 Per cent
Acid Production Inhibition ([3]; in mouthwash, 24 h incubation): 39 Per cent
Acid Production Inhibition [3, 11]: 72 Per cent
Acid Production Inhibition [3, 12]: 93 Per cent
Acid Production Inhibition [3, 13]: 16 Per cent
Acid Production Inhibition [3, 14]: 0 Per cent
Acid Production Inhibition [3, 15]: 48 Per cent
Acid Production Inhibition [3, 16]: 18 Per cent
Acid Production Inhibition [3, 17]: 0 Per cent
Acid Production Inhibition [3, 18]: 0 Per cent
Acid Production Inhibition [3, 19]: 0 Per cent
Anticaries effect in laboratory animals [4]: significant anticaries effects
